Data reported in the NIST ThermoML archive (doi:10.1016/j.tca.2011.06.020).

Tests used:
[1] = xn = mol fraction of the nth substance listed; conditions: 101 kPa, Liquid; for speed of sound: Sing-around technique in a fixed-path interferometer; for mass density: Vibrating tube method
[2] = excess molar enthalpy (molar enthalpy of mixing); xn = mol fraction of the nth substance listed; conditions: 308.15 K, 101 kPa, Liquid, Drop calorimetry

Cc1ccccc1N [2-methylaniline] + CNC=O
[1]
Conditions | mass density, 298.15 K [kg/m3] | mass density, 303.15 K [kg/m3] | mass density, 308.15 K [kg/m3] | speed of sound, 298.15 K [m/s] | speed of sound, 303.15 K [m/s] | speed of sound, 308.15 K [m/s]
x1 = 0.0656 | 1000.18 | 995.882 | 991.55 | 1454.3 | 1438.4 | 1423.3
x1 = 0.1258 | 1000.98 | 996.704 | 992.418 | 1472.4 | 1456.3 | 1440.9
x1 = 0.1673 | 1001.39 | 997.124 | 992.87 | 1484.1 | 1467.8 | 1452.2
x1 = 0.2127 | 1001.71 | 997.464 | 993.254 | 1496 | 1479.7 | 1463.8
x1 = 0.2466 | 1001.88 | 997.65 | 993.459 | 1504.4 | 1488.2 | 1471.9
x1 = 0.2789 | 1001.99 | 997.753 | 993.588 | 1512.1 | 1495.7 | 1479.4
x1 = 0.3081 | 1002.03 | 997.811 | 993.675 | 1518.6 | 1502.3 | 1485.7
x1 = 0.3356 | 1002.04 | 997.839 | 993.709 | 1524.4 | 1508.2 | 1491.4
x1 = 0.3898 | 1001.96 | 997.768 | 993.664 | 1535.2 | 1518.9 | 1501.9
x1 = 0.4383 | 1001.79 | 997.624 | 993.525 | 1544 | 1527.6 | 1510.4
x1 = 0.4802 | 1001.56 | 997.416 | 993.334 | 1551.1 | 1534.6 | 1517.2
x1 = 0.5269 | 1001.25 | 997.104 | 993.02 | 1558.2 | 1541.5 | 1524.1
x1 = 0.5599 | 1000.97 | 996.843 | 992.76 | 1562.9 | 1545.9 | 1528.5
x1 = 0.6006 | 1000.59 | 996.484 | 992.392 | 1568.2 | 1551.1 | 1533.6
x1 = 0.6519 | 1000.02 | 995.935 | 991.837 | 1574.4 | 1556.7 | 1539.2
x1 = 0.7244 | 999.105 | 995.043 | 990.907 | 1582.2 | 1563.4 | 1546
x1 = 0.7904 | 998.148 | 994.083 | 989.937 | 1588.2 | 1568.3 | 1550.9
x1 = 0.8485 | 997.204 | 993.14 | 988.977 | 1592.8 | 1571.9 | 1554.2
x1 = 1 | 994.351 | 990.224 | 986.069 | 1602.6 | 1577.8 | 1558.4

[2]
Conditions | excess molar enthalpy [kcal/mol]
x1 = 0.0486 | -0.0402
x1 = 0.0972 | -0.0749
x1 = 0.1358 | -0.101
x1 = 0.1888 | -0.126
x1 = 0.2267 | -0.145
x1 = 0.2786 | -0.16
x1 = 0.3432 | -0.175
x1 = 0.3972 | -0.182
x1 = 0.4209 | -0.183
x1 = 0.4811 | -0.181
x1 = 0.5306 | -0.175
x1 = 0.5822 | -0.162
x1 = 0.6225 | -0.153
x1 = 0.6788 | -0.138
x1 = 0.7121 | -0.124
x1 = 0.7826 | -0.0967
x1 = 0.8127 | -0.0858
x1 = 0.8455 | -0.0712
